Measurements as given in publication PMC6494078, “Development of an HPLC-based guanosine monophosphate kinase assay and application to Plasmodium vivax guanylate kinase” (Analytical Biochemistry, 2019).
pIC50: −log10 of the molar value. Blank lines part the entries; values can stand above or below the compound they belong to.

Tests used:
Format in all cases: biochemical
[1] = molecular target: T1, Plasmodium vivax guanylate kinase (PvGK) (Plasmodium vivax, UniProt A5K709); test: HPLC guanylate kinase assay, ATP saturation curve (sigmoidal, h = […]; apparent Kprime)
T1 construct: gene PVX_099895; full-length PvGK with an N-terminal hexa-histidine tag
T1 sequence (A5K709 entry or part of it): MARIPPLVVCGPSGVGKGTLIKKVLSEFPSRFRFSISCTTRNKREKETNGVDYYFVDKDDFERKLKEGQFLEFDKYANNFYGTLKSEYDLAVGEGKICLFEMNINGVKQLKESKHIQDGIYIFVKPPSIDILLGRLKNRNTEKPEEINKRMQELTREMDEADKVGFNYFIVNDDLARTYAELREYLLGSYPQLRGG

[2] = molecular target: T1, Plasmodium vivax guanylate kinase (PvGK); test: HPLC detection of product formed by purified enzyme
[3] = molecular target: T1, Plasmodium vivax guanylate kinase (PvGK); test: HPLC guanylate kinase assay, GMP saturation curve (substrate inhibition)
[4] = molecular target: T1, Plasmodium vivax guanylate kinase (PvGK); test: HPLC guanylate kinase inhibition assay, percent inhibition at […]; details: read-out: % inhibition at 5 mM
[5] = molecular target: T1, Plasmodium vivax guanylate kinase (PvGK); test: HPLC guanylate kinase inhibition assay, IC50 curve

SMILES: Nc1ncnc2c1ncn2[C@@H]1O[C@H](COP(=O)(O)OP(=O)(O)OP(=O)(O)O)[C@@H](O)[C@H]1O [ATP]
Km [1]: 15.6 ± 2.07 µM

SMILES: Nc1nc2c(ncn2[C@@H]2O[C@H](COP(=O)(O)OP(=O)(O)O)[C@@H](O)[C@H]2O)c(=O)[nH]1 [GDP]
HPLC detection of product formed by purified enzyme [2]: used to study the kinetics of the forward reaction (forming ADP and GDP) catalyzed by PvGK

SMILES: Nc1nc(=O)c2ncn([C@@H]3O[C@H](COP(=O)(O)O)[C@@H](O)[C@H]3O)c2[nH]1 [GMP]
HPLC guanylate kinase assay, GMP saturation curve (substrate inhibition) [3]: showed a decrease in initial velocity with increasing GMP concentrations, indicating strong substrate inhibition

SMILES: O=c1ccc2ccc(O)c(O)c2o1 [compound 1, 7,8-dihydroxycoumarin]
inhibition at 5000 µM [4]: 68%

pIC50 [5]: 2.57
SMILES: O=C(O)C1CSC2(C(=O)O)CCC(=O)N12 (centres unmarked) [compound 2, Compound 2]
